Results as given in PubChem BioAssay (NCI).
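96-well plates; 48 h exposure; 5 concentrations. Endpoints by linear interpolation between flanking doses. Not reached: highest tested concentration assigned. Abbreviation: GI50, concentration required for 50% inhibition of growth. TGI marks complete inhibition of growth.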

Tests used:
Assay in all cases: growth of human tumour cells (NCI), 48 h
K-562 leukemia = test system: K-562 leukemia
OVCAR-3 ovarian = test system: OVCAR-3 ovarian
CAKI-1 renal = test system: CAKI-1 renal
SK-MEL-5 melanoma = test system: SK-MEL-5 melanoma
HL-60(TB) leukemia = test system: HL-60(TB) leukemia
IGROV1 ovarian = test system: IGROV1 ovarian
HOP-62 NSCLC = test system: HOP-62 NSCLC
MALME-3M melanoma = test system: MALME-3M melanoma
HCC-2998 colon = test system: HCC-2998 colon
SK-MEL-2 melanoma = test system: SK-MEL-2 melanoma
U251 CNS = test system: U251 CNS
COLO 205 colon = test system: COLO 205 colon
UO-31 renal = test system: UO-31 renal
UACC-62 melanoma = test system: UACC-62 melanoma
RXF 393 renal = test system: RXF 393 renal
RPMI-8226 leukemia = test system: RPMI-8226 leukemia
KM12 colon = test system: KM12 colon
EKVX NSCLC = test system: EKVX NSCLC
PC-3 prostate = test system: PC-3 prostate
MOLT-4 leukemia = test system: MOLT-4 leukemia
SNB-75 CNS = test system: SNB-75 CNS
HOP-92 NSCLC = test system: HOP-92 NSCLC
OVCAR-8 ovarian = test system: OVCAR-8 ovarian
NCI/ADR-RES ovarian = test system: NCI/ADR-RES ovarian
HCT-116 colon = test system: HCT-116 colon
MDA-MB-231 breast = test system: MDA-MB-231 breast
HCT-15 colon = test system: HCT-15 colon
SF-295 CNS = test system: SF-295 CNS
SN12C renal = test system: SN12C renal
MDA-MB-435 = test system: MDA-MB-435
UACC-257 melanoma = test system: UACC-257 melanoma
NCI-H460 lung = test system: NCI-H460 lung
A498 renal = test system: A498 renal
BT-549 breast = test system: BT-549 breast
HT29 colon = test system: HT29 colon
SNB-19 CNS = test system: SNB-19 CNS
OVCAR-5 ovarian = test system: OVCAR-5 ovarian
SW-620 colon = test system: SW-620 colon
ACHN renal = test system: ACHN renal
HS 578T breast = test system: HS 578T breast
MCF7 breast = test system: MCF7 breast
SF-539 CNS = test system: SF-539 CNS
DU-145 prostate = test system: DU-145 prostate
SF-268 CNS = test system: SF-268 CNS
A549 NSCLC = test system: A549 NSCLC
OVCAR-4 ovarian = test system: OVCAR-4 ovarian
SK-MEL-28 melanoma = test system: SK-MEL-28 melanoma
LOX IMVI melanoma = test system: LOX IMVI melanoma
TK-10 renal = test system: TK-10 renal
NCI-H522 lung = test system: NCI-H522 lung
786-0 renal = test system: 786-0 renal
SK-OV-3 ovarian = test system: SK-OV-3 ovarian
NCI-H23 lung = test system: NCI-H23 lung
M14 melanoma = test system: M14 melanoma
T-47D breast = test system: T-47D breast

CCC[CH2][Sn]([CH2]CCC)([CH2]CCC)[O]C(=O)c1ccc(Cl)cc1Cl
GI50 (K-562 leukemia): 263 nM
TGI (K-562 leukemia): 1020 nM
GI50 (OVCAR-3 ovarian): 130 nM
TGI (OVCAR-3 ovarian): 259 nM
GI50 (CAKI-1 renal): 78.5 nM
TGI (CAKI-1 renal): 255 nM
GI50 (SK-MEL-5 melanoma): 143 nM
TGI (SK-MEL-5 melanoma): 276 nM
GI50 (HL-60(TB) leukemia): 187 nM
TGI (HL-60(TB) leukemia): 494 nM
GI50 (IGROV1 ovarian): 150 nM
TGI (IGROV1 ovarian): 308 nM
GI50 (HOP-62 NSCLC): 164 nM
TGI (HOP-62 NSCLC): 319 nM
GI50 (MALME-3M melanoma): 111 nM
TGI (MALME-3M melanoma): 258 nM
GI50 (HCC-2998 colon): 168 nM
TGI (HCC-2998 colon): 310 nM
GI50 (SK-MEL-2 melanoma): 149 nM
TGI (SK-MEL-2 melanoma): 333 nM
GI50 (U251 CNS): 170 nM
TGI (U251 CNS): 330 nM
GI50 (COLO 205 colon): 183 nM
TGI (COLO 205 colon): 375 nM
GI50 (UO-31 renal): 146 nM
TGI (UO-31 renal): 304 nM
GI50 (UACC-62 melanoma): 161 nM
TGI (UACC-62 melanoma): 368 nM
GI50 (RXF 393 renal): 151 nM
TGI (RXF 393 renal): 321 nM
GI50 (RPMI-8226 leukemia): 146 nM
GI50 (KM12 colon): 139 nM
TGI (KM12 colon): 283 nM
GI50 (EKVX NSCLC): 99 nM
TGI (EKVX NSCLC): 273 nM
GI50 (PC-3 prostate): 202 nM
TGI (PC-3 prostate): 471 nM
GI50 (MOLT-4 leukemia): 215 nM
TGI (MOLT-4 leukemia): 1710 nM
GI50 (SNB-75 CNS): 117 nM
TGI (SNB-75 CNS): 248 nM
GI50 (HOP-92 NSCLC): 102 nM
TGI (HOP-92 NSCLC): 301 nM
GI50 (OVCAR-8 ovarian): 183 nM
TGI (OVCAR-8 ovarian): 373 nM
GI50 (NCI/ADR-RES ovarian): 177 nM
TGI (NCI/ADR-RES ovarian): 378 nM
GI50 (HCT-116 colon): 127 nM
TGI (HCT-116 colon): 262 nM
GI50 (MDA-MB-231 breast): 129 nM
TGI (MDA-MB-231 breast): 326 nM
GI50 (HCT-15 colon): 173 nM
TGI (HCT-15 colon): 419 nM
GI50 (SF-295 CNS): 197 nM
TGI (SF-295 CNS): 375 nM
GI50 (SN12C renal): 145 nM
TGI (SN12C renal): 350 nM
GI50 (MDA-MB-435): 160 nM
TGI (MDA-MB-435): 335 nM
GI50 (UACC-257 melanoma): 155 nM
TGI (UACC-257 melanoma): 313 nM
GI50 (NCI-H460 lung): 143 nM
TGI (NCI-H460 lung): 299 nM
GI50 (A498 renal): 110 nM
TGI (A498 renal): 236 nM
GI50 (BT-549 breast): 119 nM
TGI (BT-549 breast): 251 nM
GI50 (HT29 colon): 125 nM
TGI (HT29 colon): 283 nM
GI50 (SNB-19 CNS): 179 nM
TGI (SNB-19 CNS): 359 nM
GI50 (OVCAR-5 ovarian): 135 nM
TGI (OVCAR-5 ovarian): 315 nM
GI50 (SW-620 colon): 158 nM
TGI (SW-620 colon): 335 nM
GI50 (ACHN renal): 171 nM
TGI (ACHN renal): 340 nM
GI50 (HS 578T breast): 173 nM
TGI (HS 578T breast): 538 nM
GI50 (MCF7 breast): 137 nM
TGI (MCF7 breast): 278 nM
GI50 (SF-539 CNS): 172 nM
TGI (SF-539 CNS): 327 nM
GI50 (DU-145 prostate): 128 nM
TGI (DU-145 prostate): 257 nM
GI50 (SF-268 CNS): 134 nM
TGI (SF-268 CNS): 283 nM
GI50 (A549 NSCLC): 164 nM
TGI (A549 NSCLC): 328 nM
GI50 (OVCAR-4 ovarian): 95.8 nM
TGI (OVCAR-4 ovarian): 226 nM
GI50 (SK-MEL-28 melanoma): 159 nM
TGI (SK-MEL-28 melanoma): 302 nM
GI50 (LOX IMVI melanoma): 148 nM
TGI (LOX IMVI melanoma): 303 nM
GI50 (TK-10 renal): 132 nM
TGI (TK-10 renal): 267 nM
GI50 (NCI-H522 lung): 78.4 nM
TGI (NCI-H522 lung): 251 nM
GI50 (786-0 renal): 130 nM
TGI (786-0 renal): 259 nM
GI50 (SK-OV-3 ovarian): 142 nM
TGI (SK-OV-3 ovarian): 279 nM
GI50 (NCI-H23 lung): 130 nM
TGI (NCI-H23 lung): 296 nM
GI50 (M14 melanoma): 147 nM
TGI (M14 melanoma): 290 nM
GI50 (T-47D breast): 138 nM
TGI (T-47D breast): 289 nM
